Article PMC12155470, “Novel Tetraene Macrodiolides Are Effective Inducers of Mitochondrial Apoptosis in Jurkat Cells” (International Journal of Molecular Sciences, 2025)
Where two headings read alike, the source gives them in different places.

What was measured:
K562 = experiment: In vitro cytotoxic activity, 7-AAD flow cytometry, K562; assay type: cell-based, Human; settings: Homo sapiens, K562, 24 h, 24 h incubation, mean ± SD, triplicate
Description: (§1) The investigation focused on the assessment of the synthesized compounds’ toxicities, utilizing a panel of six diverse cell lines. The selection of cells was based on the specific features of their metabolism, namely, Jurkat, K562, U937, and HL60 cells are suspension cultures of oncohematologic origin, and HEK293 is a conditionally normal line transformed by adenovirus and often used as control cells along with fibroblasts. The normal fibroblast line (Wi-38) utilized in the experiment was diploid and was obtained from the lung tissue of an aborted fetus. The total cytotoxic activity of 16 compounds was studied using flow cytometry.
(§2) Human cancer cell lines, including Jurkat, K562, U937, HL60, and fibroblasts (Wi-38), were obtained from the European Authentic Cell Culture Collection and further cultured according to established standard protocols using sterile methods. The cells were cultivated in RPMI 1640 (for Jurkat and K562) and DMEM (for Wi-38 and HEK293) media (Gibco, Billings, MT, USA), with the addition of […] glutamine, 10% FBS (Sigma, Kanagawa, Japan), and 100 U/mL penicillin–streptomycin (Sigma). All cell types were cultivated in a humidified atmosphere containing 5% CO₂ at a temperature of 37 °C. Subculturing was performed at two- to three-day intervals. The cells were subsequently seeded into 24-well plates at a density of 5 × 10^4 cells per well and incubated overnight. Subsequent subculturing was then performed at two-day intervals, with a seeding density of 1 × 10^5 cells per 24-well plate, using RPMI medium with 10% FBS [49].
(§3) The dissolution of the compounds tested was initially performed in dimethyl sulfoxide (DMSO) with an initial solution of 100 mM in 10% DMSO. Subsequently, the solution was diluted in a complete culture medium, namely, Dulbecco’s medium, modified Eagle’s medium (DMEM), or Roswell Park Memorial Institute medium (RPMI). Substances were added at concentrations of 10, 1, 100, 10, 1, and 0.1 μM on the day after seeding and incubated for 24 h. Following this, the cells were washed with a phosphate-buffered saline (PBS) solution and stained with 7AAD dye, as per the manufacturer’s protocol for flow cytometry. The CC50 value, which characterizes the parameters of toxicity (i.e., the concentration of the compound required for 50% inhibition of cell viability in vitro), was calculated. logC versus % inhibition was plotted, and statistical data processing was performed using Excel and GraphPad Prism v.8.0.2 (San Diego, CA, USA, 2019). The data obtained from three independent experiments were expressed as the mean of three measurements for each concentration, with the standard deviation indicated as well. These values were then relative to the control values (0.1% DMSO), which were taken as 100%.
(§4) 7-AAD (7-aminoactinomycin D) dye (eBioscience™, San Diego, CA, USA) was used to assess cell viability. Following incubation with the test compounds, the cells were harvested, washed with a phosphate–salt buffer (PBS), and subjected to centrifugation at 400× g for five minutes. The cell sediment was resuspended in 200 μL of staining buffer for flow cytometry (PBS without calcium and magnesium, 2.5% FBS) and stained with a 1 mM 7-AAD dye solution for 15 min in the dark at room temperature. Subsequently, all samples, including experimental and control groups, were analyzed using a BD FACSAria™ III Cell Sorter flow cytometer (Milpitas, CA, USA).

U937 = experiment: In vitro cytotoxic activity, 7-AAD flow cytometry, U937; assay type: cell-based, Human; settings: 24 h incubation, mean ± SD, triplicate
Description: as §1, §2, §3, §4

[1] = In vitro cytotoxic activity, 7-AAD flow cytometry, normal fibroblasts; assay type: cell-based; settings: human, Wi-38 normal lung fibroblasts, normal fibroblasts Wi-38, 24 h incubation, mean ± SD, read-out: Fibrobl. (CC50)
Description: as §1, §2, §3, §4

[2] = In vitro cytotoxic activity, 7-AAD flow cytometry, Hek293; assay type: cell-based; settings: human, HEK293 cells, conditionally normal line, 24 h incubation, mean ± SD
Description: as §1, §2, §3, §4

Jurkat = experiment: In vitro cytotoxic activity, 7-AAD flow cytometry, Jurkat; assay type: cell-based, Human; settings: Homo sapiens, Jurkat, 24 h, 24 h incubation, mean ± SD, triplicate
Description: as §1, §2, §3, §4

HL60 = experiment: In vitro cytotoxic activity, 7-AAD flow cytometry, HL60; assay type: cell-based; settings: Homo sapiens, HL-60, 24 h incubation, mean ± SD, triplicate
Description: as §1, §2, §3, §4

Jurkat cells = experiment: Mitodamage assay (MitoSense Red, Annexin V-CF488A, 7-AAD); assay type: cell-based, Human; settings: compound at CC50 concentration, four hours, MitoSense Red
Protocol: To this end, MitoSense Red, a fluorescent dye that accumulates predominantly in mitochondria and responds to changes in membrane potential, was utilized. […] Two dyes commonly employed for detecting apoptosis in cells are annexin V and 7AAD. […] Therefore, the dissipation of mitochondrial membrane potential and the associated apoptosis process in Jurkat tumor cells were analyzed in response to exposure to synthesized macrodiolides. MitoSense Red, Annexin V-CF488A, and 7-AAD were used as dyes for this analysis (see Figure 3). A flow cytometry kit (FlowCellect™ MitoDamage Kit from Millipore, Hayward, CA USA) was utilized, as it facilitates a multiparametric evaluation of three markers of cell health. These markers include changes in mitochondrial potential (early apoptosis and cell stress), phosphatidylserine expression on the cell surface (late apoptosis), and membrane permeability (cell death). The method of the simultaneous detection of mitochondrial damage was performed according to the well-known technique.  Figure 3 Detection changes in mitochondrial membrane potential (ΔΨ) and coupled early and late apoptosis in Jurkat cells treated with compounds 9d, 8d, 7d, and 6d. Staurosporine and carbonyl cyanide-m-chlorophenylhydrazone were utilized as control compounds. The addition of all the tested compounds was executed at the CC50 concentration (refer to the provided table for the cytotoxicities of the synthesized compounds). The staining of cells was conducted using MitoSense Red, Annexin V-CF488A, and 7-AAD. The incubation period lasted for a duration of four hours. The presence of three *** (p < 0.001) and two asterisks ** (p < 0.005) indicates the significance of the observed differences between the values obtained in the control sample and the samples treated with the synthesized substances (comparison was performed by one-way ANOVA). All experiments were performed in triplicate.

[3] = test system: Jurkat, K562, U937, HEK293, and HeLa cell cultures; settings: cited from earlier work

O=C1CCC/C=C\CC/C=C\CCCC(=O)OCCCCC/C=C\CC/C=C\CCCCCO1 [Compound 8b]
CC50 (K562): 19.2 ± 1.79 nM | CC50 (U937; Homo sapiens, U-937, 24 h): 17.9 ± 1.83 nM | CC50 at 24 h [1]: 67.2 ± 6.24 nM | CC50 at 24 h [2]: 48.2 ± 4.34 nM | CC50 (Jurkat): 21 ± 2.34 nM | CC50 (HL60): 18.7 ± 1.71 nM

O=C1CCCC/C=C\CC/C=C\CCCCC(=O)OCCC/C=C\CC/C=C\CCCO1 [Compound 6c]
CC50 (K562): 19.7 ± 1.63 nM | CC50 (U937; Homo sapiens, U-937, 24 h): 19.2 ± 1.87 nM | CC50 at 24 h [1]: 58.9 ± 5.81 nM | CC50 at 24 h [2]: 42.8 ± 4.39 nM | CC50 (Jurkat): 22.1 ± 2.14 nM | CC50 (HL60): 20.1 ± 1.95 nM

O=C1CC/C=C\CC/C=C\CCC(=O)OCCC/C=C\CC/C=C\CCCO1 [Compound 6a]
CC50 (K562): 24.8 ± 2.37 nM | CC50 (U937; Homo sapiens, U-937, 24 h): 23.1 ± 2.11 nM | CC50 at 24 h [1]: 76.2 ± 7.62 nM | CC50 at 24 h [2]: 52.3 ± 5.17 nM | CC50 (Jurkat): 28.3 ± 2.65 nM | CC50 (HL60): 19.8 ± 1.81 nM

O=C1CCCCC/C=C\CC/C=C\CCCCCC(=O)OCCCCC/C=C\CC/C=C\CCCCCO1 [Compound 8d]
CC50 (K562): 15.2 ± 1.46 nM | CC50 (U937): 12.2 ± 1.37 nM | CC50 (U937; Homo sapiens, U-937, 24 h): 12.2 nM | Jurkat cells with reduced mitochondrial membrane potential (Δψ dissipation) (Jurkat cells): 75.42% | CC50 at 24 h [1]: 63.7 ± 6.07 nM | CC50 at 24 h [2]: 51.1 ± 5.6 nM | CC50 (Jurkat): 16.1 ± 1.58 nM | CC50 (HL60): 11.1 ± 1.39 nM

O=C1CCCCC/C=C\CC/C=C\CCCCCC(=O)OCCCC/C=C\CC/C=C\CCCCO1 [Compound 7d]
CC50 (K562): 17.1 ± 1.84 nM | CC50 (U937; Homo sapiens, U-937, 24 h): 15.1 ± 1.43 nM | Jurkat cells with reduced mitochondrial membrane potential (Δψ dissipation) (Jurkat cells): 69.26% | CC50 at 24 h [1]: 60.2 ± 5.21 nM | CC50 at 24 h [2]: 48.6 ± 4.82 nM | CC50 (Jurkat): 18.1 ± 1.91 nM | CC50 (HL60): 14.5 ± 1.57 nM

O=C1CC/C=C\CC/C=C\CCC(=O)OCCCCC/C=C\CC/C=C\CCCCCO1 [Compound 8a]
CC50 (K562): 22.3 ± 2.16 nM | CC50 (U937; Homo sapiens, U-937, 24 h): 23.4 ± 2.27 nM | CC50 at 24 h [1]: 86.4 ± 7.11 nM | CC50 at 24 h [2]: 64.3 ± 5.37 nM | CC50 (Jurkat): 25.3 ± 2.63 nM | CC50 (HL60): 21.8 ± 1.96 nM

O=C1CCCC/C=C\CC/C=C\CCCCC(=O)OCCCC/C=C\CC/C=C\CCCCO1 [Compound 7c]
CC50 (K562): 16.7 ± 1.59 nM | CC50 (U937; Homo sapiens, U-937, 24 h): 17.3 ± 1.62 nM | CC50 at 24 h [1]: 59.5 ± 5.37 nM | CC50 at 24 h [2]: 46.3 ± 3.99 nM | CC50 (Jurkat): 18.4 ± 1.86 nM | CC50 (HL60): 15.3 ± 1.48 nM

O=C1CCC/C=C\CC/C=C\CCCC(=O)OCCCCCC/C=C\CC/C=C\CCCCCCO1 [Compound 9b]
CC50 (K562): 17.3 ± 1.64 nM | CC50 (U937; Homo sapiens, U-937, 24 h): 15.7 ± 1.53 nM | CC50 at 24 h [1]: 61.6 ± 5.92 nM | CC50 at 24 h [2]: 52 ± 5.43 nM | CC50 (Jurkat): 18.3 ± 2.04 nM | CC50 (HL60): 15.6 ± 1.49 nM

O=C1CC/C=C\CC/C=C\CCC(=O)OCCCC/C=C\CC/C=C\CCCCO1 [Compound 7a]
CC50 (K562): 23.6 ± 2.14 nM | CC50 (U937; Homo sapiens, U-937, 24 h): 22.2 ± 2.34 nM | CC50 at 24 h [1]: 67.2 ± 6.39 nM | CC50 at 24 h [2]: 49.9 ± 4.83 nM | CC50 (Jurkat): 26.4 ± 2.46 nM | CC50 (HL60): 20.4 ± 2.07 nM

O=C1CCC/C=C\CC/C=C\CCCC(=O)OCCC/C=C\CC/C=C\CCCO1 [Compound 6b]
CC50 (K562): 21.5 ± 2.01 nM | CC50 (U937; Homo sapiens, U-937, 24 h): 22.4 ± 2.24 nM | CC50 at 24 h [1]: 61.9 ± 6.27 nM | CC50 at 24 h [2]: 46.2 ± 3.75 nM | CC50 (Jurkat): 21.2 ± 1.97 nM | CC50 (HL60): 20.4 ± 2.1 nM

O=C1CCC/C=C\CC/C=C\CCCC(=O)OCCCC/C=C\CC/C=C\CCCCO1 [Compound 7b]
CC50 (K562): 18.1 ± 1.83 nM | CC50 (U937; Homo sapiens, U-937, 24 h): 17.4 ± 1.71 nM | CC50 at 24 h [1]: 62.6 ± 5.94 nM | CC50 at 24 h [2]: 53.1 ± 4.96 nM | CC50 (Jurkat): 20.3 ± 2.04 nM | CC50 (HL60): 18.2 ± 1.76 nM

O=C1CCCCC/C=C\CC/C=C\CCCCCC(=O)OCCC/C=C\CC/C=C\CCCO1 [Compound 6d]
CC50 (K562): 16.9 ± 1.88 nM | CC50 (U937; Homo sapiens, U-937, 24 h): 15.2 ± 1.56 nM | Jurkat cells with reduced mitochondrial membrane potential (Δψ dissipation) (Jurkat cells): 58.99% | CC50 at 24 h [1]: 59.4 ± 5.46 nM | CC50 at 24 h [2]: 44.3 ± 4.21 nM | CC50 (Jurkat): 18.5 ± 1.78 nM | CC50 (HL60): 15.7 ± 1.43 nM

O=C1CCCCCC(=O)OCCCCCC/C=C\CC/C=C\CCCCCCO1
CC50 ([3]; K562, HEK293, and HeLa): 60 to 150 nM | CC50 ([3]; individual cell cultures Jurkat, U937): 10 to 20 nM

O=C1CCCC/C=C\CC/C=C\CCCCC(=O)OCCCCC/C=C\CC/C=C\CCCCCO1 [Compound 8c]
CC50 (K562): 16.9 ± 1.62 nM | CC50 (U937; Homo sapiens, U-937, 24 h): 15.5 ± 1.49 nM | CC50 at 24 h [1]: 64.8 ± 6.35 nM | CC50 at 24 h [2]: 47.3 ± 4.22 nM | CC50 (Jurkat): 17.8 ± 1.73 nM | CC50 (HL60): 14.7 ± 1.42 nM

O=C1CCCC/C=C\CC/C=C\CCCCC(=O)OCCCCCC/C=C\CC/C=C\CCCCCCO1 [Compound 9c]
CC50 (K562): 14.7 ± 1.49 nM | CC50 (U937; Homo sapiens, U-937, 24 h): 13.1 ± 1.31 nM | CC50 at 24 h [1]: 59.4 ± 5.29 nM | CC50 at 24 h [2]: 49.2 ± 4.77 nM | CC50 (Jurkat): 17.3 ± 1.59 nM | CC50 (HL60): 12.8 ± 1.37 nM

O=C1CC/C=C\CC/C=C\CCC(=O)OCCCCCC/C=C\CC/C=C\CCCCCCO1 [Compound 9a]
CC50 (K562): 20.4 ± 1.89 nM | CC50 (U937; Homo sapiens, U-937, 24 h): 19.8 ± 1.97 nM | CC50 at 24 h [1]: 79.9 ± 6.9 nM | CC50 at 24 h [2]: 54.9 ± 5.37 nM | CC50 (Jurkat): 24.2 ± 2.39 nM | CC50 (HL60): 20.2 ± 2.17 nM
